ChEMBL document CHEMBL1201862, “PubChem BioAssay data set” (2004)
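How tested: cells in 96-well plates exposed to compound for 48 hours at five concentrations. GI50 marks 50% less growth.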 The source made the active and inactive calls. No stated cut-off is given here; in the data, active = GI50 up to about 1.1 µM and inactive = higher.

Assays:
Assay in all cases: NCI tumour cell line growth inhibition, 48 h
MDA-MB-231 = test system: MDA-MB-231
OVCAR-8 = test system: OVCAR-8
HCC 2998 = test system: HCC 2998
COLO 205 = test system: COLO 205
SF-539 = test system: SF-539
786-0 = test system: 786-0
PC-3 = test system: PC-3
NCI-H226 = test system: NCI-H226
OVCAR-5 = test system: OVCAR-5
SNB-75 = test system: SNB-75
EKVX = test system: EKVX
M14 = test system: M14
SK-MEL-2 = test system: SK-MEL-2
RPMI-8226 = test system: RPMI-8226
NCI-H522 = test system: NCI-H522
CCRF-CEM = test system: CCRF-CEM
Hs-578T = test system: Hs-578T
CAKI-1 = test system: CAKI-1
HT-29 = test system: HT-29
SW-620 = test system: SW-620
KM12 = test system: KM12
A498 = test system: A498
SF-295 = test system: SF-295
A549 = test system: A549
SK-MEL-5 = test system: SK-MEL-5
OVCAR-3 = test system: OVCAR-3
U-251 = test system: U-251
BT-549 = test system: BT-549
MDA-N = test system: MDA-N
HOP-92 = test system: HOP-92
NCI-H23 = test system: NCI-H23
SNB-19 = test system: SNB-19
SK-MEL-28 = test system: SK-MEL-28
HCT-116 = test system: HCT-116
SR = test system: SR
TK-10 = test system: TK-10
DU-145 = test system: DU-145
NCI-H460 = test system: NCI-H460
HCT-15 = test system: HCT-15
NCI/ADR-RES = test system: NCI/ADR-RES
UACC-257 = test system: UACC-257
IGROV-1 = test system: IGROV-1
UACC-62 = test system: UACC-62
SK-OV-3 = test system: SK-OV-3
LOX IMVI = test system: LOX IMVI
MCF7 = test system: MCF7
RXF 393 = test system: RXF 393
UO-31 = test system: UO-31
ACHN = test system: ACHN
T47D = test system: T47D
OVCAR-4 = test system: OVCAR-4
MDA-MB-435 = test system: MDA-MB-435
Malme-3M = test system: Malme-3M
K562 = test system: K562
HL-60 = test system: HL-60
SF-268 = test system: SF-268
SN12C = test system: SN12C
MOLT-4 = test system: MOLT-4
HOP-62 = test system: HOP-62

In the case of `O=C(CN1CCCCC1)CC(O)(C(F)(F)F)C(F)(F)F`, the GI50 (MDA-MB-231) is reported as > 100 µM (inactive), the GI50 (OVCAR-8) is reported as > 100 µM (inactive) and the GI50 (HCC 2998) is reported as > 100 µM (inactive). The GI50 (COLO 205) was > 100 µM (inactive), the GI50 (SF-539) was > 100 µM (inactive) and the GI50 (786-0) was > 100 µM (inactive). The GI50 (PC-3) was > 100 µM (inactive), the GI50 (NCI-H226) was > 100 µM (inactive) and the GI50 (OVCAR-5) was > 100 µM (inactive). For the same compound, the GI50 (SNB-75) was 20.5 µM (inactive), the GI50 (EKVX) was > 100 µM (inactive) and the GI50 (M14) was > 100 µM (inactive). The GI50 (SK-MEL-2) was > 100 µM (inactive), the GI50 (RPMI-8226) was > 100 µM (inactive) and the GI50 (NCI-H522) was > 100 µM (inactive). For the same compound, the GI50 (CCRF-CEM) was > 100 µM (inactive), the GI50 (Hs-578T) was 95.9 µM (inactive) and the GI50 (CAKI-1) was > 100 µM (inactive). For the same compound, the GI50 (HT-29) was > 100 µM (inactive), the GI50 (SW-620) was > 100 µM (inactive) and the GI50 (KM12) was > 100 µM (inactive). The GI50 (A498) was > 100 µM (inactive), the GI50 (SF-295) was > 100 µM (inactive) and the GI50 (A549) was > 100 µM (inactive). For the same compound, the GI50 (SK-MEL-5) was > 100 µM (inactive), the GI50 (OVCAR-3) was > 100 µM (inactive) and the GI50 (U-251) was > 100 µM (inactive). For the same compound, the GI50 (BT-549) was > 100 µM (inactive), the GI50 (MDA-N) was > 100 µM (inactive) and the GI50 (HOP-92) was > 100 µM (inactive). The GI50 (NCI-H23) was > 100 µM (inactive), the GI50 (SNB-19) was > 100 µM (inactive) and the GI50 (SK-MEL-28) was > 100 µM (inactive). The GI50 (HCT-116) was > 100 µM (inactive), the GI50 (SR) was > 100 µM (inactive) and the GI50 (TK-10) was > 100 µM (inactive). The GI50 (DU-145) was > 100 µM (inactive), the GI50 (NCI-H460) was > 100 µM (inactive) and the GI50 (HCT-15) was over 100 µM. The GI50 (NCI/ADR-RES) was > 100 µM (inactive), the GI50 (UACC-257) was > 100 µM (inactive) and the GI50 (IGROV-1) was > 100 µM (inactive). For the same compound, the GI50 (UACC-62) was > 100 µM (inactive), the GI50 (SK-OV-3) was > 100 µM (inactive) and the GI50 (LOX IMVI) was > 100 µM (inactive). For the same compound, the GI50 (MCF7) was > 100 µM (inactive), the GI50 (RXF 393) was > 100 µM (inactive) and the GI50 (UO-31) was > 100 µM (inactive). The GI50 (ACHN) was > 100 µM (inactive), the GI50 (T47D) was > 100 µM (inactive) and the GI50 (OVCAR-4) was > 100 µM (inactive). For the same compound, the GI50 (MDA-MB-435) was > 100 µM (inactive), the GI50 (Malme-3M) was > 100 µM (inactive) and the GI50 (K562) was > 100 µM (inactive). For the same compound, the GI50 (HL-60) was > 100 µM (inactive).

In the case of `Nc1nc(S)c2c(N)n[nH]c2c1C(=O)Nc1ccccc1`, the GI50 (MDA-MB-231) is reported as > 100 µM (inactive), the GI50 (OVCAR-8) is reported as > 100 µM (inactive) and the GI50 (HCC 2998) is reported as > 100 µM (inactive). For the same compound, the GI50 (COLO 205) was > 100 µM (inactive), the GI50 (SF-539) was > 100 µM (inactive) and the GI50 (786-0) was > 100 µM (inactive). The GI50 (PC-3) was > 100 µM (inactive), the GI50 (NCI-H226) was > 100 µM (inactive) and the GI50 (OVCAR-5) was > 100 µM (inactive). The GI50 (SNB-75) was > 100 µM (inactive), the GI50 (EKVX) was 26.5 µM (inactive) and the GI50 (M14) was > 100 µM (inactive). For the same compound, the GI50 (SK-MEL-2) was > 100 µM (inactive), the GI50 (RPMI-8226) was > 100 µM (inactive) and the GI50 (NCI-H522) was > 100 µM (inactive). The GI50 (Hs-578T) was > 100 µM (inactive), the GI50 (CAKI-1) was > 100 µM (inactive) and the GI50 (HT-29) was > 100 µM (inactive). The GI50 (SW-620) was > 100 µM (inactive), the GI50 (KM12) was 65.5 µM (inactive) and the GI50 (A498) was > 100 µM (inactive). The GI50 (A549) was > 100 µM (inactive), the GI50 (SF-268) was > 100 µM (inactive) and the GI50 (SK-MEL-5) was > 100 µM (inactive). The GI50 (OVCAR-3) was > 100 µM (inactive), the GI50 (U-251) was > 100 µM (inactive) and the GI50 (BT-549) was > 100 µM (inactive). For the same compound, the GI50 (MDA-N) was 50.2 µM (inactive), the GI50 (HOP-92) was > 100 µM (inactive) and the GI50 (NCI-H23) was > 100 µM (inactive). For the same compound, the GI50 (SNB-19) was > 100 µM (inactive), the GI50 (SK-MEL-28) was > 100 µM (inactive) and the GI50 (HCT-116) was > 100 µM (inactive). The GI50 (SR) was 13.9 µM (inactive), the GI50 (TK-10) was > 100 µM (inactive) and the GI50 (DU-145) was > 100 µM (inactive). For the same compound, the GI50 (NCI-H460) was > 100 µM (inactive), the GI50 (HCT-15) was over 100 µM and the GI50 (NCI/ADR-RES) was > 100 µM (inactive). The GI50 (UACC-257) was > 100 µM (inactive), the GI50 (IGROV-1) was > 100 µM (inactive) and the GI50 (UACC-62) was > 100 µM (inactive). For the same compound, the GI50 (SK-OV-3) was > 100 µM (inactive), the GI50 (SN12C) was > 100 µM (inactive) and the GI50 (LOX IMVI) was > 100 µM (inactive). For the same compound, the GI50 (MCF7) was > 100 µM (inactive), the GI50 (RXF 393) was > 100 µM (inactive) and the GI50 (UO-31) was > 100 µM (inactive). For the same compound, the GI50 (T47D) was > 100 µM (inactive), the GI50 (OVCAR-4) was > 100 µM (inactive) and the GI50 (MDA-MB-435) was 42 µM (inactive). For the same compound, the GI50 (Malme-3M) was > 100 µM (inactive), the GI50 (MOLT-4) was > 100 µM (inactive) and the GI50 (K562) was > 100 µM (inactive). For the same compound, the GI50 (HL-60) was > 100 µM (inactive).

For `C1=C\CCCCN2C[C@H]3CCCC/C=C\CCCCN4CC[C@@H]([C@H](CCCCCC/1)C4)[C@H](C3)C2`, the GI50 (MDA-MB-231) was 0.979 µM (active), the GI50 (OVCAR-8) was 2.84 µM (inactive) and the GI50 (HCC 2998) was 0.51 µM (active). For the same compound, the GI50 (COLO 205) was 2.07 µM (inactive), the GI50 (SF-539) was 1.87 µM (inactive) and the GI50 (786-0) was 1.75 µM (inactive). The GI50 (PC-3) was 3.12 µM (inactive), the GI50 (NCI-H226) was 17.6 µM (inactive) and the GI50 (OVCAR-5) was 7.5 µM (inactive). The GI50 (SNB-75) was 2.16 µM (inactive), the GI50 (EKVX) was 7.11 µM (inactive) and the GI50 (SK-MEL-2) was 1.88 µM (inactive). The GI50 (RPMI-8226) was 1.57 µM (inactive), the GI50 (NCI-H522) was 1.69 µM (inactive) and the GI50 (CCRF-CEM) was 2.58 µM (inactive). The GI50 (Hs-578T) was 2.05 µM (inactive), the GI50 (CAKI-1) was 2.79 µM (inactive) and the GI50 (HT-29) was 2.07 µM (inactive). For the same compound, the GI50 (SW-620) was 2.44 µM (inactive), the GI50 (KM12) was 1.82 µM (inactive) and the GI50 (A498) was 6.65 µM (inactive). For the same compound, the GI50 (SF-295) was 1.71 µM (inactive), the GI50 (A549) was 2.09 µM (inactive) and the GI50 (SF-268) was 2.65 µM (inactive). The GI50 (SK-MEL-5) was 1.61 µM (inactive), the GI50 (OVCAR-3) was 1.8 µM (inactive) and the GI50 (HOP-62) was 2.23 µM (inactive). For the same compound, the GI50 (U-251) was 2.2 µM (inactive), the GI50 (BT-549) was 6.79 µM (inactive) and the GI50 (MDA-N) was 1.75 µM (inactive). For the same compound, the GI50 (HOP-92) was 2.38 µM (inactive), the GI50 (NCI-H23) was 6.24 µM (inactive) and the GI50 (SNB-19) was 2.06 µM (inactive). The GI50 (SK-MEL-28) was 1.93 µM (inactive), the GI50 (HCT-116) was 2.11 µM (inactive) and the GI50 (SR) was 2.4 µM (inactive). For the same compound, the GI50 (TK-10) was 2.28 µM (inactive), the GI50 (DU-145) was 5.48 µM (inactive) and the GI50 (NCI-H460) was 1.76 µM (inactive). For the same compound, the GI50 (HCT-15) was 1.77 µM, the GI50 (NCI/ADR-RES) was 3.12 µM (inactive) and the GI50 (UACC-257) was 1.76 µM (inactive). The GI50 (IGROV-1) was 3.37 µM (inactive), the GI50 (UACC-62) was 1.87 µM (inactive) and the GI50 (SK-OV-3) was 8.09 µM (inactive). The GI50 (SN12C) was 10 µM (inactive), the GI50 (LOX IMVI) was 1.74 µM (inactive) and the GI50 (MCF7) was 1.93 µM (inactive). For the same compound, the GI50 (RXF 393) was 1.52 µM (inactive), the GI50 (UO-31) was 1.66 µM (inactive) and the GI50 (ACHN) was 2.07 µM (inactive). For the same compound, the GI50 (T47D) was 2.61 µM (inactive), the GI50 (OVCAR-4) was 1.62 µM (inactive) and the GI50 (MDA-MB-435) was 1.86 µM (inactive). The GI50 (Malme-3M) was 1.85 µM (inactive), the GI50 (MOLT-4) was 1.49 µM (inactive) and the GI50 (K562) was 1.47 µM (inactive). The GI50 (HL-60) was 2.31 µM (inactive).
